Data as given in patent US20250122191A1, “COMPOUNDS AS BCL-2 INHIBITORS” (Fochon Biosciences, Ltd, priority 2021, published 2025).
Read-outs that look alike come from different tables or passages of the source.

What was measured:
Assay type in all cases: cell-based
RS4;11-BCL-2 F104L cells = assay: Cell proliferation assay (MTS), RS4;11-BCL-2 F104L engineered cells; settings: 120 h, read-out: RS4, 11 BCL2-F104L IC50
From the text: MTS testing kit was purchased from Promega (Madison, WI, USA). The RPMI-1640, Fetal bovine serum and Penicillin-Streptomycin were purchased from BI (Biological Industries, Beit Haemek, Israel). Puromycin was purchased from Beyotime (shanghai, China). Dimethyl sulfoxide (DMSO) was purchased from Sigma (St. Louis., MO, USA). RS4;11-BCL-2 G101V (Cobioer Lot. #: CBD2021063013P4), RS4;11-BCL-2 D103E (Cobioer Lot. #: CBD2021063013P4), RS4;11-BCL-2 D103Y (Cobioer Lot. #: CBD2022012101P4) and RS4;11-BCL-2 F104L (Cobioer Lot. #: CBD2021063014P4) cells were cultured in RPMI1640 supplemented with 1 ug/mL puromycin, 100 U/mL Penicillin-Streptomycin and 10% FBS.
To investigate whether a compound is able to inhibit the activity of BCL-2 mutation in cells, a mechanism-based assay using engineered cell lines stably overexpressing BCL-2 mutation (RS4;11-BCL-2 G101V, RS4;11-BCL-2 D103E, RS4;11-BCL-2 D103Y, and RS4;11-BCL-2 F104L) was developed. In this assay, the inhibition of BCL-2 mutation was reflected by the inhibition of cell proliferation of engineered RS4;11 cells. Cells were plated into 96-well plates at optimized cell density (RS4;11-BCL-2 G101V: 5000 cells/well; RS4;11-BCL-2 D103E: 7500 cells/well; RS4;11-BCL-2 D103Y: 7500 cells/well; RS4;11-BCL-2 F104L: 5000 cells/well). Plates were incubated at 37° C., with 5% CO2 for 4 h (RS4;11-BCL-2 G101V, RS4;11-BCL-2 F104L) and 24 h (RS4;11-BCL-2 D103E, RS4;11-BCL-2 D103Y), respectively. Compounds were serially diluted and added to the plates with the final concentrations of 10000, 3333.3, 1111.1, 370.4, 123.5, 41.2, 13.7, 4.6 and 1.5 nM. Plates were incubated at 37° C., with 5% CO2 for 120 h (RS4; 11-BCL-2 G101V, RS4; 11-BCL-2 F104L) and 72 h (RS4;11-BCL-2 D103E, RS4;11-BCL-2 D103Y), respectively. 20 μl MTS was added into each well and the plates were incubated at 37° C., with 5% CO2 exactly for 2 h. The absorbance was measured by a microplate reader at 490 nm. IC50 values were calculated using GraphPad Prism 8.0 software.

RS4;11-BCL-2 G101V cells = assay: Cell proliferation assay (MTS), RS4;11-BCL-2 G101V engineered cells; settings: 120 h, read-out: RS4, 11 BCL2-G101V IC50
In short: (§1)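 Cells were plated, allowed to settle 4 h (G101V, F104L) or 24 h (D103E, D103Y), and treated with serially diluted compound (10000 down to 1.5 nM). After 120 h or 72 h respectively at 37 °C, MTS was added for 2 h and absorbance at 490 nm gave IC50 values.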

RS4;11-BCL-2 D103E cells = assay: Cell proliferation assay (MTS), RS4;11-BCL-2 D103E engineered cells; settings: Homo sapiens, 72 h, read-out: RS4, 11 BCL2-D103E IC50
In short: as §1

Toledo cells = assay: Cell proliferation assay (MTS), Toledo cells; settings: 72 h
In short: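 Toledo cells (RPMI-1640, 10% FBS) seeded at 30000 cells/well, rested 4 h, then exposed 72 h at 37 °C, 5% CO2 to compound at nine final concentrations, 1.5–10000 nM. Viability by MTS (2 h), absorbance at 490 nm. IC50 from the concentration-response.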

| SMILES | IC50 (RS4;11-BCL-2 F104L cells; Homo sapiens) | IC50 (RS4;11-BCL-2 G101V cells; Homo sapiens) | IC50 (RS4;11-BCL-2 D103E cells) | IC50 (RS4;11-BCL-2 F104L cells) | IC50 (RS4;11-BCL-2 G101V cells) | IC50 (Toledo cells) | IC50 (Toledo cells; Homo sapiens) |
| --- | --- | --- | --- | --- | --- | --- | --- |
| COc1cc(CN2CCN(C3CC4(CCN(c5ccc(C(=O)NS(=O)(=O)c6cnc(NC[C@H]7CC[C@](C)(O)CC7)c([N+](=O)[O-])c6)c(Oc6cc7c(F)c[nH]c7nc6OC)c5)CC4)C3)[C@H](c3ccccc3C(C)C)C2)cc(F)n1 [Example 53, 2-((3-fluoro-6-methoxy-1H-pyrrolo[2,3-b]pyridin-5-yl)oxy)-4-(2-((R)-4-((2-fluoro-6-methoxypyridin-4-yl)methyl)-2-(2-isopropylphenyl)piperazin-1-yl)-7-azaspiro[3.5]nonan-7-yl)-N-((6-((((1r,4r)-4-hydroxy-4-methylcyclohexyl)methyl)amino)-5-nitropyridin-3-yl)sulfonyl)benzamide] | 1 nM | 1 nM | 1 nM | – | – | – | – |
| COc1cc(CN2CCN(C3CC4(CCN(c5ccc(C(=O)NS(=O)(=O)c6cnc(NC[C@H]7CC[C@](C)(O)CC7)c([N+](=O)[O-])c6)c(Oc6cc7c(F)c[nH]c7nc6OC)c5)CC4)C3)[C@H](c3ccccc3C(C)C)C2)cc(Cl)n1 [Example 54, 4-(2-((R)-4-((2-chloro-6-methoxypyridin-4-yl)methyl)-2-(2-isopropylphenyl)piperazin-1-yl)-7-azaspiro [3.5]nonan-7-yl)-2-((3-fluoro-6-methoxy-1H-pyrrolo[2,3-b]pyridin-5-yl)oxy)-N-((6-((((1r,4r)-4-hydroxy-4-methylcyclohexyl)methyl)amino)-5-nitropyridin-3-yl)sulfonyl)benzamide] | 1 nM | 1 nM | 1 nM | – | – | – | – |
| COc1cc(CN2CCN(C3CC4(CCN(c5ccc(C(=O)NS(=O)(=O)c6cnc(NC[C@H]7CC[C@](C)(O)CC7)c([N+](=O)[O-])c6)c(Oc6cc7c(F)c[nH]c7nc6OC)c5)CC4)C3)[C@H](c3ccccc3C(C)C)C2)cc(OC)n1 [Example 62, 4-(2-((R)-4-((2,6-dimethoxypyridin-4-yl)methyl)-2-(2-isopropylphenyl)piperazin-1-yl)-7-azaspiro[3.5]nonan-7-yl)-2-((3-fluoro-6-methoxy-1H-pyrrolo[2,3-b]pyridin-5-yl)oxy)-N-((6-((((1r,4r)-4-hydroxy-4-methylcyclohexyl)methyl)amino)-5-nitropyridin-3-yl)sulfonyl)benzamide] | 1 nM | 1 nM | 1 nM | – | – | – | – |
| CC(C)c1ccccc1[C@@H]1CN(Cc2ccc(Cl)cc2)CCN1C1CC2(CCN(c3ccc(C(=O)NS(=O)(=O)c4cnc(NCC5CCC(C)(O)CC5)c([N+](=O)[O-])c4)c(Oc4cnc5[nH]cc(F)c5c4)c3)CC2)C1 (stereo partly drawn) [Example 229, 4-(2-((R)-4-(4-chlorobenzyl)-2-(2-isopropylphenyl)piperazin-1-yl)-7-azaspiro[3.5]nonan-7-yl)-2-((3-fluoro-1H-pyrrolo[2,3-b]pyridin-5-yl)oxy)-N-((6-((((1r,4r)-4-hydroxy-4-methylcyclohexyl)methyl)amino)-5-nitropyridin-3-yl)sulfonyl)benzamide] | – | – | – | 1 nM | 1 nM | 1 nM | – |
| CC(C)c1ccccc1[C@@H]1CN(Cc2ccc(F)cc2)CCN1C1CC2(CCN(c3ccc(C(=O)NS(=O)(=O)c4cnc(NC[C@H]5CC[C@](C)(O)CC5)c([N+](=O)[O-])c4)c(Oc4cnc5[nH]cc(F)c5c4)c3)CC2)C1 [Example 232, 2-((3-fluoro-1H-pyrrolo[2,3-b]pyridin-5-yl)oxy)-4-(2-((R)-4-(4-fluorobenzyl)-2-(2-isopropylphenyl)piperazin-1-yl)-7-azaspiro[3.5]nonan-7-yl)-N-((6-((((1r,4r)-4-hydroxy-4-methylcyclohexyl)methyl)amino)-5-nitropyridin-3-yl)sulfonyl)benzamide] | 1 nM | 1 nM | – | – | – | – | 1 nM |
| COc1nc2[nH]cc(F)c2cc1Oc1cc(N2CCC3(CC2)CC(N2CCN(Cc4ccc5c(c4)OCO5)C[C@H]2c2ccccc2C(C)C)C3)ccc1C(=O)NS(=O)(=O)c1cnc(NC[C@H]2CC[C@](C)(O)CC2)c([N+](=O)[O-])c1 [Example 353, 4-(2-((R)-4-(benzo[d][1,3]dioxol-5-ylmethyl)-2-(2-isopropylphenyl)piperazin-1-yl)-7-azaspiro [3.5]nonan-7-yl)-2-((3-fluoro-6-methoxy-1H-pyrrolo[2,3-b]pyridin-5-yl)oxy)-N-((6-((((1r,4r)-4-hydroxy-4-methylcyclohexyl)methyl)amino)-5-nitropyridin-3-yl)sulfonyl)benzamide] | 1 nM | 1 nM | – | – | – | – | 1 nM |
| CC(C)c1ccccc1[C@@H]1CN(Cc2ccc3c(c2)OCO3)CCN1C1CC2(CCN(c3ccc(C(=O)NS(=O)(=O)c4cnc(NC[C@H]5CC[C@](C)(O)CC5)c([N+](=O)[O-])c4)c(Oc4cnc5[nH]cc(F)c5c4)c3)CC2)C1 [Example 354, 4-(2-((R)-4-(benzo[d][1,3]dioxol-5-ylmethyl)-2-(2-isopropylphenyl)piperazin-1-yl)-7-azaspiro[3.5]nonan-7-yl)-2-((3-fluoro-1H-pyrrolo[2,3-b]pyridin-5-yl)oxy)-N-((6-((((1r,4r)-4-hydroxy-4-methylcyclohexyl)methyl)amino)-5-nitropyridin-3-yl)sulfonyl)benzamide] | 1 nM | 1 nM | – | – | – | – | 1 nM |
| COc1nc2[nH]cc(F)c2cc1Oc1cc(N2CCC3(CC2)CC(N2CCN(Cc4ccnc(C)c4)C[C@H]2c2ccccc2C(C)C)C3)ccc1C(=O)NS(=O)(=O)c1cnc(NC[C@H]2CC[C@](C)(O)CC2)c([N+](=O)[O-])c1 [Example 355, 2-((3-fluoro-6-methoxy-1H-pyrrolo[2,3-b]pyridin-5-yl)oxy)-N-((6-((((1r,4r)-4-hydroxy-4-methylcyclohexyl)methyl)amino)-5-nitropyridin-3-yl)sulfonyl)-4-(2-((R)-2-(2-isopropylphenyl)-4-((2-methylpyridin-4-yl)methyl)piperazin-1-yl)-7-azaspiro[3.5]nonan-7-yl)benzamide] | 1 nM | 1 nM | – | – | – | – | 1 nM |
| Cc1cc(CN2CCN(C3CC4(CCN(c5ccc(C(=O)NS(=O)(=O)c6cnc(NC[C@H]7CC[C@](C)(O)CC7)c([N+](=O)[O-])c6)c(Oc6cnc7[nH]cc(F)c7c6)c5)CC4)C3)[C@H](c3ccccc3C(C)C)C2)ccn1 [Example 356, 2-((3-fluoro-1H-pyrrolo[2,3-b]pyridin-5-yl)oxy)-N-((6-((((1r,4r)-4-hydroxy-4-methylcyclohexyl)methyl)amino)-5-nitropyridin-3-yl)sulfonyl)-4-(2-((R)-2-(2-isopropylphenyl)-4-((2-methylpyridin-4-yl)methyl)piperazin-1-yl)-7-azaspiro[3.5]nonan-7-yl)benzamide] | 2 nM | 1 nM | – | – | – | – | 1 nM |
| CC(C)c1ccccc1[C@@H]1CN(Cc2ccnc(Cl)c2)CCN1C1CC2(CCN(c3ccc(C(=O)NS(=O)(=O)c4cnc(NC[C@H]5CC[C@](C)(O)CC5)c([N+](=O)[O-])c4)c(Oc4cnc5[nH]cc(F)c5c4)c3)CC2)C1 [Example 358, 4-(2-((R)-4-((2-chloropyridin-4-yl)methyl)-2-(2-isopropylphenyl)piperazin-1-yl)-7-azaspiro[3.5]nonan-7-yl)-2-((3-fluoro-1H-pyrrolo[2,3-b]pyridin-5-yl)oxy)-N-((6-((((1r,4r)-4-hydroxy-4-methylcyclohexyl)methyl)amino)-5-nitropyridin-3-yl)sulfonyl)benzamide] | 2 nM | 1 nM | – | – | – | – | 1 nM |
